Measurements published in patent US20090306171A1, “INDOLE COMPOUNDS HAVING C4-AMIDE SUBSTITUENTS AND USE THEREOF AS PHOSPHOLIPASE-A2 INHIBITORS” (priority 2005, published 2009).

How the values were obtained:
Caco-2 monolayers = assay: Example 6B Caco-2 permeability study; format: in vitro ADME, human; settings: for apparent permeability: apical to basolateral, Caco-2 monolayers
Protocol: The culture medium was refreshed every 48 hours.
Papp=(dQ/dt)×(1/C0)×(1/A)

Stability at low pH = format: physicochemical
[1] = Example 6C pharmokinetic study (IV and oral); format: in vivo, mice; settings: 30 mg/kg oral
Description: This example characterized ILY-4001 [2-(3-(2-amino-2-oxoacetyl)-1-(biphenyl-2-ylmethyl)-2-methyl-1H-indol-4-yloxy)acetic acid], alternatively referred to herein as methyl indoxam, with respect to activity, as determined by IC50 assay (Example 6A), with respect to cell absorption, as determined by in-vitro Caco-2 assay (Example 6B) and with respect to bioavailability, as determined using in-vivo mice studies (Example 6C).
This example evaluated the bioavailability of ILY-4001 [2-(3-(2-amino-2-oxoacetyl)-1-(biphenyl-2-ylmethyl)-2-methyl-1H-indol-4-yloxy)acetic acid], alternatively referred to herein as methyl indoxam. […]
Bioavailability was calculated as a ratio of AUC-oral/AUC-intravenous (IV). To determine this ratio, a first set of subject animals were given a measured intravenous (IV) dose of ILY-4001, followed by a determination of ILY-4001 levels in the blood at various time points after administration (e.g., 5 minutes through 24 hours). Another second set of animals was similarly dosed using oral administration, with blood levels of ILY-4001 determined at various time points after administration (e.g., 30 minutes through 24 hours). The level of ILY-4001 in systemic circulation were determined by generally accepted methods (for example as described in Evans, G., A Handbook of Bioanalysis and Drug Metabolism. Boca Raton, CRC Press (2004)). […]

[2] = Example 5A body weight gain, mice on high fat/high sucrose diabetogenic diet; format: in vivo; settings: for body weight gain compared to the wild-type control group: week 4 and week 10
Protocol: (§1) ILY-4001 (FIG. 2) was evaluated as a PLA2 IB inhibitor in a set of experiments using wild-type mice and genetically deficient PLA2 (−/−) mice (also referred to herein as PLA2 knock-out (KO) mice). In these experiments, wild-type and PLA2 (−/−) mice were maintained on a high fat/high sucrose diet, details of which are described below.
(§2) Briefly, four groups were set up, each having six mice. Three of the groups included six wild-type PLA2 (+/+) mice in each group (eighteen mice total), and one of the groups included six genetically deficient PLA2 (−/−) mice. One of the wild-type groups was used as a wild-type control group, and was not treated with ILY-4001. The other two wild-type groups were treated with ILY-4001-one group at a lower dose (indicated as “L” in Table 1) of 25 mg/kg/day, and the other at a higher dose (indicated as “H” in Table 1) of 90 mg/kg/day. The group comprising the PLA2 (−/−) mice was used as a positive control group.
(§3) The experimental protocol used in this study was as follows. The four groups of mice, including wild type and isogenic PLA2 (−/−) C57BL/J mice were acclimated for three days on a low fat/low carbohydrate diet After the three day acclimation phase, the animals were fasted overnight and serum samples taken to establish baseline plasma cholesterol, triglyceride, and glucose levels, along with baseline body weight. The mice in each of the treatment groups were then fed a high fat/high sucrose diabetogenic diet (Research Diets D12331). 1000 g of the high fat/high sucrose D12331 diet was composed of casein (228 g), DL-methionine (2 g), maltodextrin 10 (170 g), sucrose (175 g), soybean oil (25 g), hydrogenated coconut oil (333.5 g), mineral mix S10001 (40 g), sodium bicarbonate (10.5 g), potassium citrate (4 g), vitamin mix V10001 (10 g), and choline bitartrate (2 g). This diet was supplemented with ILY-4001 treatments such that the average daily dose of the compound ingested by a 25 g mouse was: 0 mg/kg/day (wild-type control group and PLA2 (−/−) control group); 25 mg/kg/day (low-dose wild-type treatment group), or 90 mg/kg/day (high-dose wild-type treatment group). The animals were maintained on the high fat/high sucrose diet, with the designated ILY-4001 supplementation, for a period of ten weeks.
Body weight measurements were taken for all animals in all treatment and control groups at the beginning of the treatment period and at 4 weeks and 10 weeks after initiation of the study. (See Example 5A). Blood draws were also taken at the beginning of the treatment period (baseline) and at 4 weeks and 10 weeks after initiation of the study, in order to determine fasting glucose (See Example 5B). Cholesterol and triglyceride levels were determined from blood draws taken at the beginning of the treatment (baseline) and at ten weeks. (See Example 5C).
In the study generally described above in Example 5, body weight measurements were taken for all animals in all treatment and control groups at the beginning of the treatment period and at 4 weeks and 10 weeks after initiation of the study.

[3] = Example 5B fasting serum glucose, mice on high fat/high sucrose diabetogenic diet; format: in vivo; settings: low dose (25 mg/kg/day)
Protocol: as §1, §2
The experimental protocol used in this study was as follows. […]
Body weight measurements were taken for all animals in all treatment and control groups at the beginning of the treatment period and at 4 weeks and 10 weeks after initiation of the study. […] Cholesterol and triglyceride levels were determined from blood draws taken at the beginning of the treatment (baseline) and at ten weeks. […]

[4] = Example 5C serum cholesterol and triglycerides, mice on high fat/high sucrose diabetogenic diet; format: in vivo; settings: 10 weeks
Protocol: as §1, §2, §3
Body weight measurements were taken for all animals in all treatment and control groups at the beginning of the treatment period and at 4 weeks and 10 weeks after initiation of the study. (See Example 5A). Blood draws were also taken at the beginning of the treatment period (baseline) and at 4 weeks and 10 weeks after initiation of the study, in order to determine fasting glucose (See Example 5B). Cholesterol and triglyceride levels were determined from blood draws taken at the beginning of the treatment (baseline) and at ten weeks. […]

human PLA2 IB enzyme = human PLA2 IB enzyme (Homo sapiens, UniProt P04054); settings: pyrene substrate release from vesicles; Singer, Ghomashchi et al. 2002; read-out: IC50 value versus the human PLA2 IB enzyme; cited from earlier work
Chain of human PLA2 IB enzyme (P04054 23-148): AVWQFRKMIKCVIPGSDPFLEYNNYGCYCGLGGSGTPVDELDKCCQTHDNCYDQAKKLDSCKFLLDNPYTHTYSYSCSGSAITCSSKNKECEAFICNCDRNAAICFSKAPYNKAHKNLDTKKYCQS

mouse PLA2 IB enzyme = mouse PLA2 IB enzyme (Mus musculus, UniProt Q9Z0Y2); settings: pyrene substrate release from vesicles; Singer, Ghomashchi et al. 2002; read-out: IC50 value versus the mouse PLA2 IB enzyme; cited from earlier work
Chain of mouse PLA2 IB enzyme (Q9Z0Y2 23-146): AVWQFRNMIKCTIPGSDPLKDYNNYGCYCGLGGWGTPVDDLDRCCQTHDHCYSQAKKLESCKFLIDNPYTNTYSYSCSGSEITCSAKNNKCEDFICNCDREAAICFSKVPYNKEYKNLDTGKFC

Row | Compound | apparent permeability (Caco-2 monolayers) | stability at low pH (Stability at low pH) | absorption from the GI lumen (Caco-2 monolayers; based on Caco-2 assays and pharmokinetic studies) | level of non-absorption from the GI tract into systemic circulation [1] | body weight gain compared to the wild-type control group ([2]; 25 mg/kg/d in diet) | body weight gain, extent of modulation relative to PLA2 (−/−) mice ([2]; 25 mg/kg/d, four weeks) | body weight gain compared to the wild-type control group ([2]; 90 mg/kg/d in diet) | body weight gain, extent of modulation relative to PLA2 (−/−) mice ([2]; 90 mg/kg/d, four weeks) | body weight gain, extent of modulation relative to PLA2 (−/−) mice ([2]; low-dose (25 mg/kg/d), ten weeks) | fasting glucose levels ([3]; week four) | fasting glucose levels ([3]; week ten) | plasma levels of cholesterol ([4]; high dose (90 mg/kg/day)) | plasma levels of triglycerides ([4]; high dose (90 mg/kg/day)) | plasma levels of cholesterol ([4]; low dose (25 mg/kg/day)) | plasma levels of triglycerides ([4]; low dose (25 mg/kg/day)) | IC50 (human PLA2 IB enzyme) | IC50 (mouse PLA2 IB enzyme)
1 | Lucifer Yellow | around 2.82×10^−7+/−0.37×10^−7 cm/s |  |  |  |  |  |  |  |  |  |  |  |  |  |  |  | 
2 | Cc1c(C(=O)C(N)=O)c2c(OCC(=O)O)cccc2n1Cc1ccccc1-c1ccccc1 [ILY-4001, 2-(3-(2-amino-2-oxoacetyl)-1-(biphenyl-2-ylmethyl)-2-methyl-1H-indol-4-yloxy)acetic acid] | around 1.66×10^−7 cm/s | stable at low pH | relatively low absorption | ~72% | significantly reduced body weight gains | approaching that achieved in the PLA2 (−/−) mice | significantly reduced body weight gains | approaching that achieved in the PLA2 (−/−) mice | comparable to that achieved in the PLA2 (−/−) mice | moderately beneficial effect | a beneficial effect was not observed | substantially reduced | substantially reduced | substantially reduced | substantially reduced | ~200 nM | ~150 nM
